Measurements published in US20250051350A1, “Dihydroartemisinin derivatives and the treatment of fibrotic diseases” (GreenStone Biosciences, Inc., priority 2023, published 2025).
Read-outs that look alike come from different tables or passages of the source.

Key:
[1] = Intravenous and oral pharmacokinetics in mice; assay type: in vivo; conditions: male C57BL/6J mice; for IV AUC0-last / IV Clearance / IV T1/2 / IV VD,ss / PO AUC0-last / PO T1/2: plasma
Method: The intravenous (IV) and oral (PO) pharmacokinetics of the PT compounds were measured in 6-10 week-old male C57BL/6J mice, using three mice/group. The test compounds were formulated in an appropriate water-based vehicle to give a clear solution for IV administration, or a clear solution or uniform suspension for PO administration. Animals were dosed within 4 hours of the preparation of the formulations; with the dose volume being determined by the animal's body weight measured on the morning of the dosing day. Blood samples (about 25 μL per time point) were taken at 5 and 15 minutes and 1, 3, and 5 hours after dosing, into pre-chilled EDTA-K2 tubes and kept on wet ice until centrifugation. The tubes were centrifuged at 3200×g at about 4° C. for 10 minutes, and the plasma analyzed by LC-MS/MS.

in vitro = in vitro ADME; conditions: for fraction unbound: plasma
Method: Plasma protein binding assays were conducted in triplicate for compounds PT-2, PT-14, PT-28, and PT-30, with artesunate, DHA, and warfarin as comparators.

[2] = test system: bleomycin-induced pulmonary fibrosis model; conditions: bleomycin-induced pulmonary fibrosis model in rats; cited from earlier work
[3] = test system: Induced pluripotent stem cell-derived cardiac fibroblasts (ACTA2-GFP); test: Antifibrotic effects in TGF-β-activated iPSC-derived cardiac fibroblasts (ACTA2-GFP fluorescence); assay type: cell-based; conditions: activated with TGF-β, 48 hours; for IC50: simultaneous treatment, ACTA2-GFP fluorescence, read-out: IC50, reduction in fluorescence; for reduction in fluorescence (fibrotic marker ACTA2-GFP): various concentrations
Text: Induced pluripotent stem cell-derived cardiac fibroblasts were constructed containing a fusion of the alpha-smooth muscle actin to the green fluorescent protein (ACTA2-GFP) construct. ACTA2 is a myofibroblast marker, such that the fibroblasts fluoresce with an intensity dependent on the extent of fibrosis.

[4] = test system: MD2 signaling pathway (HEK Blue-TLR4 cells); test: HEK Blue-TLR4 assay (MD2 pathway); assay type: cell-based; conditions: 1 h preincubation, 10 ng/mL lipopolysaccharide, read after 20 hours at 655 nm
Method: HEK Blue-TLR4 cells were plated in detection media, preincubated with vehicle or PT-2, PT-14, or PT-30 dissolved in vehicle (with artesunate, DHA, and artemisinin comparators) for 1 h, then co-stimulated with 10 ng/mL lipopolysaccharide. Reporter activity was read after 20 hours at 655 nm in a spectrophotometer. The PT compounds were active in this assay, showing that they inhibit the MD2 signaling pathway.

CC1CCC2C(C)C(OC(=O)N3CC(C)(N)C3)OC3OC4(C)CCC1C32OO4 (centres unmarked) [PT-24, DHA 3-amino-3-methylazetidine-1-carboxylate]
IV AUC0-last [1]: 2200 ng·h/mL | IV Clearance [1]: 77 mL/min/kg | IV T1/2 [1]: 15.6 min | IV VD,ss [1]: 2.2 L/kg | PO Bioavailability [1]: 123% | PO AUC0-last [1]: 24300 ng·h/mL | PO T1/2 [1]: 67.2 min

C[C@H]1[C@H](OC(=O)CCC(=O)O)O[C@@H]2O[C@@]3(C)CC[C@H]4[C@H](C)CC[C@@H]1[C@@]24OO3 [artesunate]
recovery (in vitro; human): 98% | fraction unbound (in vitro; human): 0.233 | recovery (in vitro; mouse): 53.4% | fraction unbound (in vitro; mouse): 0.278 | antifibrotic activity [2]: active as an antifibrotic agent | IC50 ([3]; Cardiac fibroblast): 2800 nM | reduction in fluorescence (fibrotic marker ACTA2-GFP) [3]: dose-dependent reduction in fluorescence

CC(CO)C(=O)OC1OC2OC3(C)CCC4C(C)CCC(C1C)C24OO3 (centres unmarked) [PT-1, DHA 3-hydroxy-2-methylpropionate]
IV AUC0-last [1]: 100 ng·h/mL | IV Clearance [1]: 1280 mL/min/kg | IV T1/2 [1]: 7.8 min | IV VD,ss [1]: 9.0 L/kg | PO Bioavailability [1]: 1.3% | PO AUC0-last [1]: 20 ng·h/mL | PO T1/2 [1]: 22.2 min | IC50 [3]: 2300 nM

CC1CCC2C(C)C(OC(=O)N3CC(C)(C(N)=O)C3)OC3OC4(C)CCC1C32OO4 (centres unmarked) [PT-27, DHA 3-methyl-3-carbamoylazetidine-1-carboxylate]
IV AUC0-last [1]: 3300 ng·h/mL | IV Clearance [1]: 47 mL/min/kg | IV T1/2 [1]: 15 min | IV VD,ss [1]: 1.0 L/kg | PO Bioavailability [1]: 41% | PO AUC0-last [1]: 14400 ng·h/mL | PO T1/2 [1]: 78 min

C[C@H]1[C@@H](OC(=O)C(C)(C)CO)O[C@@H]2O[C@@]3(C)CC[C@H]4[C@H](C)CC[C@@H]1[C@@]24OO3 [PT-2, DHA 3-hydroxy-2,2-dimethylpropanoate]
activity in HEK Blue-TLR4 reporter assay (inhibition of MD2 signaling pathway) [4]: active | IV AUC0-last [1]: 1200 ng·h/mL | IV Clearance [1]: 140 mL/min/kg | IV T1/2 [1]: 6 min | IV VD,ss [1]: 1.3 L/kg | PO Bioavailability [1]: 27% | PO AUC0-last [1]: 3200 ng·h/mL | IC50 [3]: 880 nM

C[C@H]1[C@@H](O)OC2O[C@@]3(C)CC[C@H]4[C@H](C)CC[C@@H]1[C@@]24OO3 (stereo in doubt) [DHA, (3R,5aS,6R,8aS,9R,12S,12aR)-decahydro-3,6,9-trimethyl-3,12-epoxy-12H-pyrano[4,3-j]-1,2-benzodioxepin-10-ol]
recovery (in vitro; human): 102% | fraction unbound (in vitro; human): 0.108 | recovery (in vitro; mouse): 105% | fraction unbound (in vitro; mouse): 0.1 | reduction in fluorescence (fibrotic marker ACTA2-GFP) [3]: dose-dependent reduction in fluorescence

CC1CCC2C(C)C(OC(=O)CC(C)(C)O)OC3OC4(C)CCC1C32OO4 (centres unmarked) [PT-4, DHA 3-hydroxy-3-methylbutanoate]
IV AUC0-last [1]: 600 ng·h/mL | IV Clearance [1]: 280 mL/min/kg | IV T1/2 [1]: 6.6 min | IV VD,ss [1]: 2.0 L/kg | PO Bioavailability [1]: 11% | PO AUC0-last [1]: 500 ng·h/mL | PO T1/2 [1]: 10.8 min | IC50 [3]: 5600 nM
